These results are taken from US20250243488A1, “METHODS OF MODULATING PROGRANULIN EXPRESSION USING ANTISENSE OLIGONUCLEOTIDES TARGETING REGULATORY RNAS” (Camp4 Therapeutics Corporation, priority 2022, published 2025).

Oligonucleotides are written 5' to 3', each unit as a sugar letter and its base; * is a phosphorothioate linkage, no mark a phosphodiester; rarer units and linkages stand in square brackets, end groups in braces. Plain capitals give the bases only. e = 2'-O-(2-methoxyethyl) (MOE); l = locked nucleic acid (LNA); [5mC] = 5-methylcytosine; d = 2'-deoxy (DNA)

For data set [1], the system named is mGrn mRNA. Description: mGrn mRNA qPCR in Neuro2a cells transfected with ASOs. It is filed as cell-based, mouse. Particulars: Table 14; Neuro2a, 100 nM, 48 hours; normalized to sNTC3. Here is the method:
57 ASOs targeting the Grn promoter (− strand) were screened in Neuro2a cells. Neuro2a cells were transfected with 100 nM of each of the ASOs listed in Table 14 and cells were harvested 48 hours later for Grn mRNA quantification using qPCR. Housekeeping genes for normalization were Gapdh and Ppia. Relative Grn mRNA levels were normalized to mRNA extracted from cells treated with sNTC3 (steric nontargeting control).
Next, 26 ASOs based on parent ASOs CO-3544 and CO-3595 were designed with different modifications and base walking. Neuro2a cells were transfected with either […] or 160 nM of each of the ASOs listed in Table 15, and cells were harvested 48 hours later for mGrn mRNA quantification using qPCR. As controls, cells were treated with sNTC3 or no ASO. Housekeeping genes for normalization were Gapdh and Ppia. Relative Grn mRNA levels were normalized to mRNA extracted from cells treated with sNTC3.
CO-3544 was modified to include PO/PS bonds and the efficacy in upregulating mGrn mRNA was determined.
Similarly, CO-3595 was modified to include varying PO/PS internucleotide bonds and the efficacy of these ASOs in upregulating mGrn mRNA was determined in Neuro2A cells.
(Quantitative PCR measures a nucleic acid by following its amplification.)

The subject of data set [2] is GRN mRNA. Put plainly: GRN mRNA qPCR in SK-N-AS cells transfected with ASOs. The conditions noted are these: SK-N-AS; for 120 nM FC (GRN mRNA) / hGRN mRNA FC: 120 nM. It counts as cell-based, human. The method, boiled down:
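Human neuroblastoma SK-N-AS cells transfected with ASOs at increasing concentrations (20 to 160 nM in initial titrations); GRN mRNA quantified by qPCR after 48 hours. Normalized to GAPDH and PPIA, fold change relative to steric non-targeting control ASO(s) (sNTC/CO-1589, with CO-3772 and CO-1929 in some series).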

Where [3] appears, read: Table 6, normalized to CO-3772, CO-1589 and CO-1929.
The mark [4] stands for this setting: Table 7, normalized to CO-1589 (sNTC1).
[5] abbreviates: Table 13, normalized to CO-1589.
Setting [6] is: Table 11, 48 hours, normalized to CO-1589.
The mark [7] stands for this setting: Table 12, normalized to CO-1589.
Setting [8] is: Table 9, 48 hours post-transfection, normalized to CO-1589.
Where [9] appears, read: Table 3, normalized to CO-3772 and CO-1589 (sNTC1).
Where [10] appears, read: Table 4, normalized to CO-3772 and CO-1589 (sNTC1).

With “CO-3567: ASO targeting the Grn promoter (− strand) (antisense e[5mC]*e[5mC]*e[5mC]*eT*eG*eG*eA*eT*e[5mC]*eT*e[5mC]*e[5mC]*eG*eA*eG*e[5mC]*eA*eA*eT*eG)”, the “mGRN mRNA FC” value in data set [1] is reported as 1.1 FC.

As to “CO-4456: mixed PO/PS bond version of CO-3431 (antisense eA*eT*eTeGe[5mC]eAeG*eT*eG*eA*e[5mC]*eG*e[5mC]*e[5mC]e[5mC]e[5mC]eGeT*eT*eA)”, in data set [2] (setting [3]), the “30 nM FC (GRN mRNA)” value came out at 0.7 FC, the “60 nM FC (GRN mRNA)” value was found to be 0.5 FC and the “120 nM FC (GRN mRNA)” value is 0.4 FC.

As to “CO-5266: CO-3423 with additional LNA tiling and PO bond modifications (antisense GGACTTGGGAGTGGTGACTG; 2'-MOE, mixed PS/PO, 5-methylcytosine; listed as RNA; modified_base 1..7: mod_base = OTHER; note = Phosphorothioate linkage; modified_base 17..20: mod_base = OTHER; modified_base 1..20: mod_base = OTHER; note = 2'-O-(2-methoxyethyl) ribonucleotide; modified_base 4)”, in data set [2] (setting [4]), the “7.5 nM FC (GRN mRNA)” value was 1.0 FC, the “13 nM FC (GRN mRNA)” value came out at 1.0 FC, the “30 nM FC (GRN mRNA)” value is 1.2 FC and the “60 nM FC (GRN mRNA)” value came out at 1.7 FC. In addition, in data set [2] (setting [4]), the “120 nM FC (GRN mRNA)” value is recorded as 2.0 FC and the “150 nM FC (GRN mRNA)” value was determined as 2.2 FC.

In the case of “CO-6413: ASO based on parent ASOs CO-4363 and CO-4364 (antisense eG*eG*eA*e[5mC]*eT*dT*dG*dG*eG*dA*dG*dT*eG*dG*dT*dG*eA*e[5mC]*eT*eG*eA)”, in data set [2] (setting [5]), the “30 nM FC (GRN mRNA)” value is 1.0 FC, the “60 nM FC (GRN mRNA)” value came to 0.6 FC and the “120 nM FC (GRN mRNA)” value was found to be 0.7 FC.

On to “CO-6436: ASO designed to target an intragenic enhancer RNA (eRNA) (eT*eG*eT*e[5mC]*e[5mC]*e[5mC]*e[5mC]*eA*e[5mC]*eT*e[5mC]*eA*eG*eG*e[5mC]*e[5mC]*eA*e[5mC]*e[5mC]*eT)”, for which, in data set [2] (setting [6]), the “hGRN mRNA FC” value was found to be 1.1 FC.

“CO-6388: ASO based on parent ASO CO-3462 (antisense eT*eA*eG*eG*eA*lG*dA*dA*lT*d[5mC]*dG*l[5mC]*dT*dT*lT*eG*eG*eG*eA*eG)”: in data set [2] (setting [7]), the “30 nM FC (GRN mRNA)” value was 1.1 FC, the “60 nM FC (GRN mRNA)” value stood at 1.0 FC and the “120 nM FC (GRN mRNA)” value is recorded as 1.4 FC.

As for “CO-6520: ASO based on parent ASO CO-3462 (antisense eT*eA*eG*eG*eA*eG*eA*eAeTe[5mC]eGe[5mC]eTeTeTeGeGeG*eA*eG)”, in data set [2] (setting [7]), the “30 nM FC (GRN mRNA)” value is 1.0 FC, the “60 nM FC (GRN mRNA)” value came to 1.2 FC and the “120 nM FC (GRN mRNA)” value came to 0.8 FC.

“CO-4457: mixed PO/PS bond version of CO-3431 (antisense eA*eT*eTeGe[5mC]eAeGeTeGeAe[5mC]eGe[5mC]e[5mC]e[5mC]e[5mC]eGeT*eT*eA)”: in data set [2] (setting [3]), the “30 nM FC (GRN mRNA)” value was found to be 0.2 FC, the “60 nM FC (GRN mRNA)” value worked out at 0.1 FC and the “120 nM FC (GRN mRNA)” value is given as 0.1 FC.

“CO-4634: ASO designed to target intergenic enhancers (eRNA) (antisense eT*eT*eT*eA*e[5mC]*e[5mC]*e[5mC]*eA*eT*eA*eT*eA*e[5mC]*e[5mC]*e[5mC]*eA*e[5mC]*eA*e[5mC]*e[5mC])”: the “hGRN mRNA FC” value in data set [2] (setting [8]) came to 1.1 FC.

For the substance “CO-4617: ASO designed to target intergenic enhancers (eRNA) (antisense eG*eG*eA*eG*eA*eT*eA*eG*eG*eG*eT*e[5mC]*eA*e[5mC]*eG*eT*eA*e[5mC]*eT*eT)”, the “hGRN mRNA FC” value in data set [2] (setting [8]) was 1.2 FC.

On to “CO-6438: ASO designed to target an intragenic enhancer RNA (eRNA) (e[5mC]*eT*eA*e[5mC]*eT*eG*eA*eG*e[5mC]*e[5mC]*eT*eG*eG*eA*eA*eG*eT*eG*eA*e[5mC])”, for which the “hGRN mRNA FC” value in data set [2] (setting [6]) amounted to 1.2 FC.

“CO-6396: ASO based on parent ASO CO-3462 (antisense eT*eA*eG*lG*eA*eG*eA*lA*eT*e[5mC]*eG*l[5mC]*eT*eT*eT*lG*eG*eG*eA*eG)”: in data set [2] (setting [7]), the “30 nM FC (GRN mRNA)” value is on record as 1.4 FC, the “60 nM FC (GRN mRNA)” value turned out to be 1.9 FC and the “120 nM FC (GRN mRNA)” value was determined as 1.9 FC.

For the substance “CO-4593: ASO designed to target intergenic enhancers (eRNA) (antisense eT*eT*eT*eT*eG*e[5mC]*e[5mC]*e[5mC]*eA*eG*e[5mC]*eG*e[5mC]*e[5mC]*e[5mC]*e[5mC]*eT*eT*eT*eA)”, the “hGRN mRNA FC” value in data set [2] (setting [8]) came out at 0.8 FC.

With “CO-4587: ASO designed to target intergenic enhancers (eRNA) (antisense eT*eT*e[5mC]*eT*eA*eA*eA*e[5mC]*eG*e[5mC]*eG*eA*eA*eG*eT*eG*eG*eG*eT*eG)”, the “hGRN mRNA FC” value in data set [2] (setting [8]) worked out at 1.2 FC.

For “CO-4651: ASO designed to target intergenic enhancers (eRNA) (antisense eT*eA*eG*eG*e[5mC]*eA*e[5mC]*e[5mC]*e[5mC]*eA*eA*eG*eG*e[5mC]*eT*eT*eT*eA*eT*eT)”, the “hGRN mRNA FC” value in data set [2] (setting [8]) came out at 1.3 FC.

“CO-6439: ASO designed to target an intragenic enhancer RNA (eRNA) (eG*e[5mC]*eT*e[5mC]*e[5mC]*e[5mC]*eT*eG*eT*eG*eT*eG*e[5mC]*eT*eA*e[5mC]*eT*eG*eA*eG)”: in data set [2] (setting [6]), the “hGRN mRNA FC” value worked out at 1.1 FC.

Regarding “CO-4642: ASO designed to target intergenic enhancers (eRNA) (antisense eG*eG*e[5mC]*eT*eG*e[5mC]*eA*eG*eA*eT*e[5mC]*eT*e[5mC]*eT*eA*eT*eA*eT*e[5mC]*eA)”, in data set [2] (setting [8]), the “hGRN mRNA FC” value is listed as 1.0 FC.

Consider “CO-6404: ASO based on parent ASO CO-3462 (antisense eG*eG*eT*eA*eG*eG*eA*eG*eA*eA*eT*e[5mC]*eG*e[5mC]*eT*eT*eT*eG*eG*eG*eA*eG*e[5mC]*eA)”, for which, in data set [2] (setting [7]), the “30 nM FC (GRN mRNA)” value is listed as 1.3 FC, the “60 nM FC (GRN mRNA)” value is 1.3 FC and the “120 nM FC (GRN mRNA)” value was 1.5 FC.

With “CO-4360: LNA/PS modified ASO based on CO-3423 (antisense eG*eG*eA*e[5mC]*lT*eT*eG*eG*eG*lA*eG*eT*eG*eG*lT*eG*eA*e[5mC]*eT*eG)”, in data set [2] (setting [9]), the “30 nM FC (GRN mRNA)” value is recorded as 1.4 FC, the “60 nM FC (GRN mRNA)” value was 1.8 FC and the “120 nM FC (GRN mRNA)” value was 2.5 FC.

For “CO-4364: longer ASO based on CO-3423 (antisense eG*eG*eA*e[5mC]*eT*eT*eG*eG*eG*eA*eG*eT*eG*eG*eT*eG*eA*e[5mC]*eT*eG*eA*eA*e[5mC])”, in data set [2] (setting [10]), the “30 nM FC (GRN mRNA)” value was 1.1 FC, the “60 nM FC (GRN mRNA)” value was determined as 1.3 FC and the “120 nM FC (GRN mRNA)” value is reported as 1.6 FC. Besides, in data set [2] (setting [4]), the “7.5 nM FC (GRN mRNA)” value came out at 1.1 FC, the “13 nM FC (GRN mRNA)” value came to 1.2 FC, the “30 nM FC (GRN mRNA)” value was 1.7 FC and the “60 nM FC (GRN mRNA)” value is 2.1 FC. In addition, in data set [2] (setting [4]), the “120 nM FC (GRN mRNA)” value came out at 1.9 FC and the “150 nM FC (GRN mRNA)” value was determined as 2.3 FC. Besides, in data set [2] (setting [5]), the “30 nM FC (GRN mRNA)” value turned out to be 1.1 FC, the “60 nM FC (GRN mRNA)” value amounted to 1.5 FC and the “120 nM FC (GRN mRNA)” value is listed as 1.6 FC.

In the case of “CO-6437: ASO designed to target an intragenic enhancer RNA (eRNA) (eG*eA*e[5mC]*eA*eA*eA*eG*eA*e[5mC]*e[5mC]*e[5mC]*eA*e[5mC]*e[5mC]*e[5mC]*e[5mC]*eT*eG*eT*e[5mC])”, the “hGRN mRNA FC” value in data set [2] (setting [6]) is 1.1 FC.
